One data set concerns rat hepatocytes. Briefly: In vitro metabolic stability in rat hepatocytes. To be noted: 1 μM. The format is in vitro ADME. How it is done:
Caco-2 cells (purchased from DSMZ Braunschweig, Germany) were seeded at a density of 4.5×10^4 cells per well on 24 well insert plates, 0.4 µm pore size, and grown for 15 days in DMEM medium supplemented with 10% fetal bovine serum, 1% GlutaMAX (100×, GIBCO), 100 U/mL penicillin, 100 μg/mL streptomycin (GIBCO) and 1% non essential amino acids (100×). Cells were maintained at 37° C. in a humified 5% CO2 atmosphere. Medium was changed every 2-3 day. Before running the permeation assay, the culture medium was replaced by a FCS-free hepes-carbonate transport buffer (pH 7.2). For assessment of monolayer integrity the transepithelial electrical resistance (TEER) was measured. Test compounds were predissolved in DMSO and added either to the apical or basolateral compartment in final concentration of 2 μM in transport buffer. Before and after 2 h incubation at 37° C. samples were taken from both compartments. Analysis of compound content was done after precipitation with methanol by LC/MS/MS analysis. Permeability (Papp) was calculated in the apical to basolateral (A→B) and basolateral to apical (B→A) directions. The apparent permeability was calculated using following equation: Papp=(Vr/Po)(1/S)(P2/t) Where Vr is the volume of medium in the receiver chamber, Po is the measured peak area or height of the test drug in the donor chamber at t=o, S the surface area of the monolayer, P2 is the measured peak area of the test drug in the acceptor chamber after 2 h of incubation, and t is the incubation time. The efflux ratio basolateral (B) to apical (A) was calculated by dividing the Papp B-A by the Papp A-B. In addition the compound recovery was calculated. 6. Investigation of In Vitro Metabolic Stability in Rat Hepatocytes
Hepatocytes from Han Wistar rats were isolated via a 2-step perfusion method. After perfusion, the liver was carefully removed from the rat: the liver capsule was opened and the hepatocytes were gently shaken out into a Petri dish with ice-cold Williams medium E (purchased from Sigma Aldrich Life Science, St Louis, Mo.). The resulting cell suspension was filtered through sterile gaze in 50 ml falcon tubes and centrifuged at 50×g for 3 min at room temperature. The cell pellet was resuspended in 30 ml WME and centrifuged through a Percoll® gradient for 2 times at 100×g. […] Cell viability was determined by trypan blue exclusion. […] Samples were frozen at −20° C. over night, after subsequently centrifuged for 15 minutes at 3000 rpm and the supernatant was analyzed with an Agilent 1200 HPLC-system with LCMS/MS detection.
The half-life of a test compound was determined from the concentration-time plot. From the half-life the intrinsic clearances were calculated.

For a further data set, the system named is HeLa-MaTu-ADR. Briefly: Proliferation assay, crystal violet. The format is cell-based. To be noted: Homo sapiens, 96 h, 4 days, read-out: Inhibition of HeLa-MaTu-ADR cell proliferation IC50. The protocol: Cultivated tumour cells (HeLa, human cervical tumour cells, ATCC CCL-2; NCI—H460, human non-small cell lung carcinoma cells, ATCC HTB-177; DU 145, hormone-independent human prostate carcinoma cells, ATCC HTB-81; HeLa-MaTu-ADR, multidrug-resistant human cervical carcinoma cells, EPO-GmbH Berlin; Caco-2, human colorectal carcinoma cells, ATCC HTB-37; B16F10, mouse melanoma cells, ATCC CRL-6475) were plated at a density of 3,500 cells/well (DU145), 3,000 cells/well (HeLa-MaTu-ADR), 1,500 cells/well (NCI—H460), 3,000 cells/well (HeLa), 2,000 cells/well (Caco-2), or 1,000 cells/well (B16F10) in a 96-well multititer plate in 150 μL of their respective growth medium supplemented 10% fetal calf serum. After 24 hours, the cells of one plate (zero-point plate) were stained with crystal violet (see below), the test substances were added in various concentrations (0 μM, as well as in the range of 0.0001-10 μM) employing HP Dispenser. The cells were incubated for 4 days in the presence of test substances. Cell proliferation was determined by staining the cells with crystal violet: the cells were fixed by adding 20 μl/measuring point of an 11% glutaric aldehyde solution for 15 minutes at room temperature. After three washing cycles of the fixed cells with water, the plates were dried at room temperature. The cells were stained by adding 100 μl/measuring point of a 0.1% crystal violet solution DU 145, Caco-2, HeLa (pH 4.5) B16F10, NCI—H460, HeLa-MaTu-ADR. After three washing cycles of the stained cells with water, the plates were dried at room temperature. The dye was dissolved by adding 100 μl per measuring point of a 10% acetic acid solution. The extinction was determined by photometry at a wavelength of 595/550/620 nm depending on the intensity of coloration, usually at 595 nm. The change of cell number, in percent, was calculated by normalization of the measured values to the extinction values of the zero-point plate (=0%) and the extinction of the untreated (0 μM) cells (=100%). The IC50 values (inhibitory concentration at 50% of maximal effect) were determined by means of a 4 parameter fit.

Data set [1] is described as follows: In vivo pharmacokinetics in rats. To be noted: male, Wistar, rat, plasma, iv; i.v. bolus dosing to rats; read-out: t1/2: terminal half-life (converted). The protocol: 7. In Vivo Pharmacokinetics in Rats
For in vivo pharmacokinetic experiments test compounds were administered to male Wistar rats intravenously at doses of 0.3 to 1 mg/kg formulated as solutions using either rat plasma or solubilizers such as PEG400 in well-tolerated amounts.
For pharmacokinetics after intravenous administration test compounds were given as i.v. bolus and blood samples were taken at 2 min, 8 min, 15 min, 30 min, 45 min, 1 h, 2 h, 4 h, 6 h, 8 h and 24 h after dosing. […] Blood was collected into Lithium-Heparin tubes (Monovetten®, Sarstedt) and centrifuged for 15 min at 3000 rpm. An aliquot of 100 μL from the supernatant (plasma) was taken and precipitated by addition of 400 μL ice cold acetonitrile and frozen at −20° C. over night. Samples were subsequently thawed and centrifuged at 3000 rpm, 4° C. for 20 minutes. Aliquots of the supernatants were taken for analytical testing using an Agilent 1200 HPLC-system with LCMS/MS detection. PK parameters were calculated by non-compartmental analysis using a PK calculation software. […]

Molecules are shown by their SMILES. pIC50: −log10 of the molar value.

For `CS(=N)(Cc1cc2nc(c1)OCCCOc1cc(F)ccc1-c1cc(ncc1F)N2)=NCCCO` (racemic) [Example 2, (rac)-3-(2-{[15,19-difluoro-3,4-dihydro-2H,11H-10,6-(azeno)-12,16-(metheno)-1,5,11,13-benzodioxadiazacyclooctadecin-8-yl]methyl}-2-methyl-2λ^6-diazathia-1,2-dien-1-yl)propan-1-ol], in the data set with rat hepatocytes, the “maximal calculated oral bioavailability (Fmax) based on stability data in rat hepatocytes” value (“maximal calculated oral bioavailability” below) is 58%.
Still for that read-out and setting: the same measure for `CN=S(C)(=N)Cc1cc2cc(c1)OCCCCOc1cc(F)ccc1-c1nc(ncc1F)N2` (racemic) [Example 10, (rac)-9-[(N,S-dimethylsulfonodiimidoyl)methyl]-16,20-difluoro-2,3,4,5-tetrahydro-12H-13,17-(azeno)-11,7-(metheno)-1,6,12,14-benzodioxadiazacyclononadecine]: 46%.
On to `CS(=N)(=N)Cc1cc2nc(c1)OCCCOc1cc(F)ccc1-c1cc(ncc1F)N2` [Example 1, 15,19-difluoro-8-[(S-methylsulfonodiimidoyl)methyl]-3,4-dihydro-2H,11H-10,6-(azeno)-12,16-(metheno)-1,5,11,13-benzodioxadiazacyclooctadecine], for which, in the data set with HeLa-MaTu-ADR, the pIC50 is 8.11. In addition, in the data set on rat hepatocytes, the “maximal calculated oral bioavailability” value was 76%. In data set [1], the half-life was 3.4 h.
Regarding `CS(=N)(=N)Cc1cc2cc(c1)OCCCCOc1cc(F)ccc1-c1nc(ncc1F)N2` [Example 5, 16,20-difluoro-9-[(S-methylsulfonodiimidoyl)methyl]-2,3,4,5-tetrahydro-12H-13,17-(azeno)-11,7-(metheno)-1,6,12,14-benzodioxadiazacyclononadecine], the “maximal calculated oral bioavailability” value with rat hepatocytes is 93%. The half-life in data set [1] is 6.9 h.

Values taken from patent US10717749B2, “Macrocyclic sulfondiimine compounds” (BAYER PHARMA AKTIENGESELLSCHAFT, priority 2015, dated 2020).
